Experimental data from patent US9624170B2, “4-(piperrazin-1-yl)-pyrrolidin-2-one compounds as monoacylglycerol lipase (MAGL) inhibitors” (TAKEDA PHARMACEUTICAL COMPANY LIMITED, priority 2013, dated 2017).

target: T1, human MAGL (His-hMAGL) (Homo sapiens, UniProt Q99685); test: Measurement of MAGL inhibitory activity by mass spectrometry; assay type: biochemical; settings: MAGL inhibitory rate, test compound 10 μM, His-hMAGL, substrate 2-arachidonylglycerol, RapidFire-mass spectrometry
T1 construct: made in house; host or cells: Escherichia coli BL21(DE3)
T1 sequence (Q99685 1-303): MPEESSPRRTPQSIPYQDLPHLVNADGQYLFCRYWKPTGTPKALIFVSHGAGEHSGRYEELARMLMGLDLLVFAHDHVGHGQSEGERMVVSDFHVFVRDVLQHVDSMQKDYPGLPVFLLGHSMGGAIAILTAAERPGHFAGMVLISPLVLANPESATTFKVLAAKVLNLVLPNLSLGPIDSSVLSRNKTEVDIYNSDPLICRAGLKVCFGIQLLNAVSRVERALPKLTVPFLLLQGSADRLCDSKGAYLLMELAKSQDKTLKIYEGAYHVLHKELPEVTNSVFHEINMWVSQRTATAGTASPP
Outline: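 His-tagged human MAGL was reacted with 150 μM 2-arachidonylglycerol substrate (stock, added by 5 μL) for 10 min at room temperature, then stopped with formic acid. Arachidonic acid product was quantified by RapidFire–triple-quadrupole MS in negative SRM mode, corrected by arachidonic acid-d8, and converted to percent inhibition.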

inhibition at 10 µM [%] | Structure (SMILES)
98 | Cc1ncccc1-c1cc(F)cc(N2CC(N3CCN(c4ncccn4)CC3)CC2=O)c1 (centres unmarked) [Example 406, 1-(3-Fluoro-5-(2-methylpyridin-3-yl)phenyl)-4-(4-(pyrimidin-2-yl)piperazin-1-yl)pyrrolidin-2-one]
94 | CC(C)(C)CC(=O)N1CCc2cc(N3CC(N4CCN(c5ncccn5)CC4)CC3=O)ccc21 (centres unmarked) [Example 409, 1-(1-(3,3-dimethylbutanoyl)-2,3-dihydro-1H-indol-5-yl)-4-(4-(pyrimidin-2-yl)piperazin-1-yl)pyrrolidin-2-one]
80 | COc1ccc(CC(=O)N2CCc3cc(N4CC(N5CCN(c6ncccn6)CC5)CC4=O)ccc32)cn1 (centres unmarked) [Example 410, 1-(1-((6-methoxypyridin-3-yl)acetyl)-2,3-dihydro-1H-indol-5-yl)-4-(4-(pyrimidin-2-yl)piperazin-1-yl)pyrrolidin-2-one]
97 | O=C(c1cscn1)N1CCN([C@@H]2CC(=O)N(c3ccc4c(c3)CCN4C(=O)Cc3ccc(Cl)cc3)C2)CC1 [Example 415, (4R)-1-(1-((4-chlorophenyl)acetyl)-2,3-dihydro-1H-indol-5-yl)-4-(4-(1,3-thiazol-4-ylcarbonyl)piperazin-1-yl)pyrrolidin-2-one]
96 | O=C(c1cscn1)N1CCN([C@@H]2CC(=O)N(c3ccc4c(ccn4-c4ccc(C(F)(F)F)cc4)c3)C2)CC1 [Example 418, (4R)-4-(4-(1,3-Thiazol-4-ylcarbonyl)piperazin-1-yl)-1-(1-(4-(trifluoromethyl)phenyl)-1H-indol-5-yl)pyrrolidin-2-one]
96 | O=C(c1cscn1)N1CCN([C@@H]2CC(=O)N(c3ccc4c(ccn4-c4ccc(C(F)(F)F)cn4)c3)C2)CC1 [Example 419, (4R)-4-(4-(1,3-Thiazol-4-ylcarbonyl)piperazin-1-yl)-1-(1-(5-(trifluoromethyl)pyridin-2-yl)-1H-indol-5-yl)pyrrolidin-2-one]
100 | O=C(c1cscn1)N1CCN([C@@H]2CC(=O)N(c3ccc4c(ccn4-c4cccc(C(F)(F)F)c4)c3)C2)CC1 [Example 421, (4R)-4-(4-(1,3-thiazol-4-ylcarbonyl)piperazin-1-yl)-1-(1-(3-(trifluoromethyl)phenyl)-1H-indol-5-yl)pyrrolidin-2-one]
100 | O=C(c1cscn1)N1CCN([C@@H]2CC(=O)N(c3ccc4c(ccn4-c4cc(C(F)(F)F)ccn4)c3)C2)CC1 [Example 425, (4R)-4-(4-(1,3-Thiazol-4-ylcarbonyl)piperazin-1-yl)-1-(1-(4-(trifluoromethyl)pyridin-2-yl)-1H-indol-5-yl)pyrrolidin-2-one]
100 | O=C(c1cscn1)N1CCN([C@@H]2CC(=O)N(c3ccc4c(ccn4-c4cccc(Cl)c4)c3)C2)CC1 [Example 428, (4R)-1-(1-(3-chlorophenyl)-1H-indol-5-yl)-4-(4-(1,3-thiazol-4-ylcarbonyl)piperazin-1-yl)pyrrolidin-2-one]
100 | O=C(c1cscn1)N1CCN([C@@H]2CC(=O)N(c3ccc4c(c3)CCN4c3ccc(F)cc3)C2)CC1 [Example 429, (4R)-1-(1-(4-fluorophenyl)-2,3-dihydro-1H-indol-5-yl)-4-(4-(1,3-thiazol-4-ylcarbonyl)piperazin-1-yl)pyrrolidin-2-one]
83 | O=C1CC(N2CCN(c3ncccn3)CC2)CN1c1ccc2c(ccn2-c2ncc(C(F)(F)F)cn2)c1 (centres unmarked) [Example 433, 4-(4-(Pyrimidin-2-yl)piperazin-1-yl)-1-(1-(5-(trifluoromethyl)pyrimidin-2-yl)-1H-indol-5-yl)pyrrolidin-2-one]
100 | CC1C(N2CCN(C(=O)c3nccs3)CC2)CC(=O)N1c1ccc2c(ccn2-c2ncc(C(F)(F)F)cn2)c1 (centres unmarked) [Example 434, 5-methyl-4-(4-(1,3-thiazol-2-ylcarbonyl)piperazin-1-yl)-1-(1-(5-(trifluoromethyl)pyrimidin-2-yl)-1H-indol-5-yl)pyrrolidin-2-one]

Further lines, the compound ahead of its results:

Structure (SMILES) | inhibition at 10 µM [%]
COc1cnc(N2CCc3cc(N4C[C@H](N5CCN(C(=O)c6nccs6)CC5)CC4=O)ccc32)nc1 [Example 407, (4R)-1-(1-(5-methoxypyrimidin-2-yl)-2,3-dihydro-1H-indol-5-yl)-4-(4-(1,3-thiazol-2-ylcarbonyl)piperazin-1-yl)pyrrolidin-2-one] | 104
CC(C)(C)OC(=O)N1CCc2cc(N3C[C@H](N4CCN(C(=O)c5cscn5)CC4)CC3=O)ccc21 [Example 408, tert-butyl 5-((4R)-2-oxo-4-(4-(1,3-thiazol-4-ylcarbonyl)piperazin-1-yl)pyrrolidin-1-yl)indoline-1-carboxylate] | 103
O=C1CC(N2CCN(c3ncccn3)CC2)CN1c1ccc2c(c1)CCN2C(=O)Cc1ccc(F)cc1 (centres unmarked) [Example 413, 1-(1-((4-fluorophenyl)acetyl)-2,3-dihydro-1H-indol-5-yl)-4-(4-(pyrimidin-2-yl)piperazin-1-yl)pyrrolidin-2-one] | 94
CC(C)(C)CC(=O)N1CCc2cc(N3C[C@H](N4CCN(C(=O)c5cscn5)CC4)CC3=O)ccc21 [Example 414, (4R)-1-(1-(3,3-dimethylbutanoyl)-2,3-dihydro-1H-indol-5-yl)-4-(4-(1,3-thiazol-4-ylcarbonyl)piperazin-1-yl)pyrrolidin-2-one] | 100
O=C(c1cscn1)N1CCN([C@@H]2CC(=O)N(c3ccc4c(c3)CCN4C(=O)Cc3cccc(Cl)c3)C2)CC1 [Example 416, (4R)-1-(1-((3-chlorophenyl)acetyl)-2,3-dihydro-1H-indol-5-yl)-4-(4-(1,3-thiazol-4-ylcarbonyl)piperazin-1-yl)pyrrolidin-2-one] | 99
O=C(c1cscn1)N1CCN([C@@H]2CC(=O)N(c3ccc4c(c3)CCN4c3ccc(C(F)(F)F)cn3)C2)CC1 [Example 420, (4R)-4-(4-(1,3-Thiazol-4-ylcarbonyl)piperazin-1-yl)-1-(1-(5-(trifluoromethyl)pyridin-2-yl)-2,3-dihydro-1H-indol-5-yl)pyrrolidin-2-one] | 89
O=C(c1cscn1)N1CCN([C@@H]2CC(=O)N(c3ccc4c(ccn4-c4cccc(F)c4)c3)C2)CC1 [Example 422, (4R)-1-(1-(3-fluorophenyl)-1H-indol-5-yl)-4-(4-(1,3-thiazol-4-ylcarbonyl)piperazin-1-yl)pyrrolidin-2-one] | 99
O=C(c1cscn1)N1CCN([C@@H]2CC(=O)N(c3ccc4c(ccn4-c4ccc(Cl)cc4)c3)C2)CC1 [Example 423, (4R)-1-(1-(4-Chlorophenyl)-1H-indol-5-yl)-4-(4-(1,3-thiazol-4-ylcarbonyl)piperazin-1-yl)pyrrolidin-2-one] | 98
Cc1ncccc1-c1cc(F)cc(N2C[C@H](N3CCN(c4ncccn4)CC3)CC2=O)c1 [Example 426, (4R)-1-(3-Fluoro-5-(2-methylpyridin-3-yl)phenyl)-4-(4-(pyrimidin-2-yl)piperazin-1-yl)pyrrolidin-2-one] | 99
O=C(c1cscn1)N1CCN([C@@H]2CC(=O)N(c3ccc4c(ccn4-c4ncc(C(F)(F)F)cn4)c3)C2)CC1 [Example 432, (4R)-4-(4-(1,3-Thiazol-4-ylcarbonyl)piperazin-1-yl)-1-(1-(5-(trifluoromethyl)pyrimidin-2-yl)-1H-indol-5-yl)pyrrolidin-2-one] | 100

same assay, conditions: MAGL inhibitory rate, test compound 10 μM, His-hMAGL, substrate 2-arachidonylglycerol, RapidFire-mass spectrometry; 10 µM

% inhibition at 10 μM [%] | Structure (SMILES)
85 | O=C1CC(N2CCN(c3ncccn3)CC2)CN1c1ccc2c(c1)CCN2c1ncc(C(F)(F)F)cn1 (stereo not drawn) [Example 430, 4-(4-(Pyrimidin-2-yl)piperazin-1-yl)-1-(1-(5-(trifluoromethyl)pyrimidin-2-yl)-2,3-dihydro-1H-indol-5-yl)pyrrolidin-2-one (optical isomer)]
